Several values for one entry are separate records, joined by “and”; a condition that tells them apart may be missing. Equal entries are not always repeated.
Tests used:
[1] = test system: adult male rats; conditions: intracisternal administration, conscious rats, dose related; cited from earlier work
[2] = test system: experimental brain trauma; conditions: in vivo; cited from earlier work
[3] = test system: insulin resistant subject one; test: Example II: CHMMO given to an insulin resistant subject, blood values and liver enzymes; assay type: in vivo, human
Description: A insulin resistant subject was given 17-cyclopropylmethyl-3-hydroxy-14-methoxy-8β-methylmorphinan-6-one hydrochloride (CEMMO), a pure opioid antagonist, in two daily doses of 18 mg each for the duration of one week, followed by 9 mg b.i.d. for another 4 weeks.

[4] = molecular target: κ opioid receptor (Homo sapiens, UniProt P41145); test: biochemical; assay type: binding; conditions: prototype ligand EKC
From the text: (§1) For each receptor there is a prototype ligand. […] For the μ receptor the prototype ligand is DHM (dihydromorphine). For the δ receptor, the prototype ligand is DADLE (D-Ala+D-Leu-Enkephalin), and for the κ receptor, the prototype ligand is EKC (ethylketocyclazocine).

[5] = molecular target: μ opioid receptor (Homo sapiens, UniProt P35372); test: biochemical; assay type: binding; conditions: prototype ligand DHM
From the text: as §1

[6] = test system: μ, δ, and κ opiate receptors; test: Ratios of IC50 between opiate receptors; assay type: binding
From the text: as §1
The relationship between the IC50 levels f or the μ, δ, κ opiate receptors may also be expressed in terms of a ratio.

[7] = molecular target: δ opioid receptor (Homo sapiens, UniProt P41143); test: Receptor binding, displacement of prototype ligand DADLE
From the text: as §1

[8] = test system: patients with prolactin-producing tumors of the pituitary gland; conditions: cited from earlier work
[9] = Day 41 vs Day 1 (after 5 weeks)
[10] = Day 41 vs Day 1 (after 5 weeks), hydrochloride
[11] = Day 41 vs Day 1 (after 5 weeks), listed as CEMMO, hydrochloride
[12] = day 41 (after 5 weeks), 18 mg b.i.d. one week, then 9 mg b.i.d.
[13] = day 41, 18 mg b.i.d. one week, then 9 mg b.i.d.

δ opioid receptor, sequence (P41143 whole entry): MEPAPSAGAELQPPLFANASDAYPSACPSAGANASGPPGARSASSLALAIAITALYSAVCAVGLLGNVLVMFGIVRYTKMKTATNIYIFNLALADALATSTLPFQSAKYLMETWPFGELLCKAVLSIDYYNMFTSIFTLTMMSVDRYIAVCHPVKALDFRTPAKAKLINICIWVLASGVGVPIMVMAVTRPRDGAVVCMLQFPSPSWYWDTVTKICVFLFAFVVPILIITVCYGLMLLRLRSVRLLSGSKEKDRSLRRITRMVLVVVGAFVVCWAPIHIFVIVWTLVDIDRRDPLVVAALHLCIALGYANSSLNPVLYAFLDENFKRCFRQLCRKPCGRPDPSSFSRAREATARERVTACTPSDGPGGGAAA
κ opioid receptor, sequence (P41145 whole entry): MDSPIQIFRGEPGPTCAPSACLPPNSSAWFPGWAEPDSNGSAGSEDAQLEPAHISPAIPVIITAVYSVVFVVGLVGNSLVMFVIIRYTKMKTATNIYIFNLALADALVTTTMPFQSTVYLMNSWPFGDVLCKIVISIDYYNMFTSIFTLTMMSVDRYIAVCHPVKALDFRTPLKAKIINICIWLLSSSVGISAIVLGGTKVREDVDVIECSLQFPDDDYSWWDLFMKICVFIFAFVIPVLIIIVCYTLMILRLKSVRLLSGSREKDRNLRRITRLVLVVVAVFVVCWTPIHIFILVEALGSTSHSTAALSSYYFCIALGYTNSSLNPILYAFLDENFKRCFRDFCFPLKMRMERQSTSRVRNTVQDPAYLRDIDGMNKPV
μ opioid receptor, sequence (P35372 whole entry): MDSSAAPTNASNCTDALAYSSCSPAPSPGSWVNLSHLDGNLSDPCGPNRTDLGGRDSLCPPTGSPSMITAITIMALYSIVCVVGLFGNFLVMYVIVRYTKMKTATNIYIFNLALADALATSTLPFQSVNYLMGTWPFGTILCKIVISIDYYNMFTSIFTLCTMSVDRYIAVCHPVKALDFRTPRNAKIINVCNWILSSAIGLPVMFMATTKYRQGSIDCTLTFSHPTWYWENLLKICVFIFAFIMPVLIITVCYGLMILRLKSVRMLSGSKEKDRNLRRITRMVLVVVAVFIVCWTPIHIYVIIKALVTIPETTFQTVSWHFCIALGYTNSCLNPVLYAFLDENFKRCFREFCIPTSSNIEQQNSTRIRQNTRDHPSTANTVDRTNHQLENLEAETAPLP

## β-endorphin: synthetic human β-endorphin (YGGFMTSEKSQTPLVTLFKNAIIKNAYKKGE; Beta-endorphin; UniProt P01189 237-267, looked up)
[1]
  plasma concentrations of catecholamines: increased plasma concentrations of epinephrine, norepinephine, and dopamine

## Oc1ccc2c3c1O[C@H]1c4[nH]c5c(c4C[C@@]4(O)[C@@H](C2)N(CC2CC2)CC[C@]314)C[C@@]1(O)[C@H]2Cc3ccc(O)c4c3[C@@]1(CCN2CC1CC1)[C@H]5O4 [nor-binaltorphimine]
[2]
  outcome after experimental brain trauma: improves the outcome

## CO[C@@]12[C@@H](C)CC(=O)C[C@@]13CCN(CC1CC1)[C@@H]2Cc1ccc(O)cc13.Cl [CHMMO, 17-cyclopropylmethyl-3-hydroxy-14-methoxy-8βmethylmorphinan-6-one hydrochloride]
[3]; Day 1
  Weight: 82 kg
[3]; Day 1, Table III
  Alk-phos: 145 U/L
[3]; Day 41, 9.0 mg b.i.d.
  Weight: 80 kg
[3]; Day 41, 9.0 mg b.i.d., Table III
  Alk-phos: 126 U/L
[3]; Day 41 vs Day 1
  ALT Δ%: 31%
  AST Δ%: 30%
  Alk-phos Δ%: 6%
  Glucose Δ%: 14%
  LD Δ%: 27%
  Weight Δ%: 4.5%
[3]; [9]
  Chol. Total Δ% (fall): 21%
  LDL-C. Δ% (fall): 7%
  TG Δ% (fall): 42%
[3]; [10]
  FFA Δ% (fall): 22.7%
  HDL-C. Δ% (increase): 16%
  Insulin Δ% (fall): 50%
  LDL/HDL Δ% (improvement): 22%
[3]; [11]
  FFA Δ% (fall): 23%
  HDL-C. Δ% (increase): 20%
  Insulin Δ% (fall): about 50%
  LDL/HDL Δ% (improvement): 23%
[3]; after the first week, 18 mg twice daily, remained essentially at the same level
  Blood glucose: 95 mg/dL
[3]; day 1
  ALT: 29 U/L
  AST: 23 U/L
  CH. T (total cholesterol): 234 mg/dL
  FFA: 0.75 mM/L
  Gluc.: 111 mg/dL
  HDL: 30 mg/dL
  Insulin: 14 μU/ml
  LD: 162 U/L
  LDL: 156 mg/dL
  LDL/HDL: 5.2
  TG: 229 mg/dL
[3]; day 1, Table II (unit not given)
  Alk.-Phos: 145
[3]; day 41
  ALT: 20 U/L
  AST: 16 U/L
  LD: 117 U/L
[3]; [12]
  CH. T (total cholesterol): 185 mg/dL
  HDL: 36 mg/dL
  Insulin: 6 μU/ml
  LDL: 145 mg/dL
  TG: 133 mg/dL
[3]; day 41 (after 5 weeks), 18 mg b.i.d. one week, then 9 mg b.i.d., hydrochloride
  LDL/HDL: 4.0 and 4.03
[3]; day 41 (after 5 weeks), 18 mg b.i.d. one week, then 9 mg b.i.d., listed as CEMMO, hydrochloride
  LDL/HDL: 4.0
[3]; day 41, Table II (unit not given)
  Alk.-Phos: 126
[3]; [13]
  FFA: 0.58 mM/L
  Gluc.: 95 mg/dL
[3]; during the first week, 18 mg twice daily
  drop of blood glucose: 15%
[3]; end of study, after 5 weeks
  FFA: 580 μE/L
[3]; end of the study
  Weight: slight weight loss
[3]; start of study
  FFA: 754 μE/L
[4]
  IC50: 0.95 nM
[5]
  IC50: 0.5 nM
[6]
  IC50 κ/ IC50 δ ratio: < 3
  IC50 κ/ IC50 μ ratio: < 3
  δ,κ,μ IC50 being within a factor of: ≤ 3
[7]
  IC50: 0.8 nM

## CC(C)C[C@H]1C(=O)N2CCC[C@H]2[C@]2(O)O[C@](NC(=O)[C@@H]3C=C4c5cccc6[nH]c(Br)c(c56)C[C@H]4N(C)C3)(C(C)C)C(=O)N12 [bromocriptine, 2-bromo-α-ergocryptine]
[8]
  glucose tolerance: improves glucose tolerance
  insulin values: decreases insulin values toward normal
